Laboratory results reported in publication PMC10892719 (Pharmaceutics, 2024).
Entries after “also recorded” stand apart in the source; their conditions may differ. Where two headings read alike, the source gives them in different places.

Experiments:
[1] = target: T1, equine butyrylcholinesterase (eqBChE) (Equus caballus, UniProt P81908); assay: BChE inhibition, adapted Ellman method; type: biochemical; conditions: for SI (selectivity index): IC50 (AChE)/IC50 (BChE); for IC50: eqBChE, mean of two independent experiments ± SD, read-out: BChE Inhib IC50
T1 construct: purchased Sigma-Aldrich (Steinheim, Germany)
T1 sequence (P81908 whole entry): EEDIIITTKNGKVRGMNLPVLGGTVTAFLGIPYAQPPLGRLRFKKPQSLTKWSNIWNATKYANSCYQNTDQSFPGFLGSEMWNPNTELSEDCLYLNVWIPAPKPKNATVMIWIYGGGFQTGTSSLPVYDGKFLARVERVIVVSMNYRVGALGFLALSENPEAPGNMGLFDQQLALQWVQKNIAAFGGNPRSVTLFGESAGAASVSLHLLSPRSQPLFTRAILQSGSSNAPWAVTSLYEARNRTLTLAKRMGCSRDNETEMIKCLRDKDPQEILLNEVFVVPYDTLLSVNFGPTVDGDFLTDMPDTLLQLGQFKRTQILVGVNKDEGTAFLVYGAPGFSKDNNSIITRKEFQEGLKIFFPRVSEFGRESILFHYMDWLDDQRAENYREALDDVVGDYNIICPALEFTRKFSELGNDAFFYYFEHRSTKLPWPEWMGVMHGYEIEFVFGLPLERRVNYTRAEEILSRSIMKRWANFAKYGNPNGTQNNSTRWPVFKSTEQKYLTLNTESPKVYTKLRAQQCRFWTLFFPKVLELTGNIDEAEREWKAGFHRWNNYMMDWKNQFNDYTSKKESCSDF
Protocol: (§1) The enzyme inhibition of electric eel acetylcholinesterase (eeAChE) and equine butyrylcholinesterase (eqBChE) by our compounds was evaluated through an adaptation of Elmman´s method using reagents from Sigma-Aldrich (Steinheim, Germany). Stock solutions of each compound (1 mg) in MeOH (1 mL) were prepared and then working solutions for each ligand were obtained by the corresponding dilution of the stock solutions. A control measurement with 5 replicates (without ligand) and a calibration curve of 5 points with 3 replicates per point was performed. The preparation of each solution involved fixed volumes of 4-(2-hydroxyethyl)-1-piperazine-ethanesulfonic acid (HEPES) and cholinesterase (eeAChE or eqBChE) with different volumes of ligand solution, and it was left to rest for 15 min immediately after adding the cholinesterase. A blank solution containing HEPES and MeOH was also prepared at the same time. […] The slope for each calibration point (absorbance versus reaction time) was determined and the inhibition for each compound was calculated by using the following equation: %Inhibition=100−(vi/v0×100) where vi is the reaction rate (slope) for each point of the calibrate with ligand and v0 is the initial reaction rate (slope) for the control point (without ligand). […] Experiments were performed twice for each compound.

[2] = test system: SH-SY5Y cells; assay: Cell viability dose-response screening, MTT; type: cell-based, human; conditions: 24 h, screening 0.5 µM to 20 µM
Protocol: (§2) Cell viability, following treatment with the compounds, was determined using the colorimetric MTT (3-(4,5-dimethylthiazol-2-yl)-2,5-diphenyltetrazolium bromide) assay. The tested compounds (5a1-3, 5b1-3, 5c1-3) were dissolved in DMSO to produce stock solutions of 25 mM and stored at −20 °C. A concentration screening was performed for 0.5 µM to 20 µM final concentrations to choose the highest nontoxic concentration. SH-SY5Y human neuroblastoma cell line (ATCC-CRL-2266) was cultured in Dulbecco’s modified Eagle’s medium (DMEM) (Gibco-Invitrogen, Life Technologies Ltd., Waltham, MA, USA) with heat-inactivated fetal calf serum (10%), penicillin (50 U/mL) and streptomycin (50 µg/mL) at 37 °C with 5% CO2. Cells were plated at 0.15 × 10^6 cells/mL one day prior to the start of the experiment. The cells were then incubated with the appropriate concentration of the compounds for 24 h. After the incubation period, the cells were washed once with PBS and incubated with 200 µL MTT (0.5 mg/mL) for 2 h at 37 °C with 5% CO2. During this period, cellular dehydrogenase successfully metabolized MTT into formazan, which was then solubilized using 200 µL of 0.04 M HCl/isopropanol. Absorbance was measured at 570 nm.
The new RIV-IND hybrids were tested to determine their protective role in the toxicity induced by either Aβ1-42 peptides or iron/ascorbate. SH-SY5Y cells were incubated with a set of concentrations of each of the compounds and a dose–response curve was constructed to select the highest nontoxic concentration.
Figure 3 Dose–response screening of RIV-IND compounds 5a1-3, 5b1-3 and 5c1-3 measured by MTT reduction ability on SH-SY5Y cells treated with different concentrations of the compounds for 24 h. Results are expressed relatively to untreated cells, with the mean ± standard error of the mean (SEM) derived from three independent experiments. * p < 0.05; ** p < 0.01; *** p < 0.001 compared to untreated cells. (The dot line indicates 100% cellular viability).

[3] = target: T2, Aβ1-42 (Homo sapiens, UniProt P05067); assay: Inhibition of Aβ1-42 self-aggregation, thioflavin T fluorescence; type: biochemical; conditions: Cinhibitor = 20 µM, Aβ1-42 40 µM, 37 °C, 24 h, read-out: Aβ42 Self-Aggreg. Inhib
T2 construct: purchased Genecust, Boynes, France
T2 sequence (P05067 672-713 limits assumed): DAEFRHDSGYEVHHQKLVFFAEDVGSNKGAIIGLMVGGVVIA
Protocol: The Aβ peptide (Genecust, Boynes, France) was treated with 1,1,1,3,3,3-hexafluoropropan-2-ol (HFIP, Aldrich, Steinheim, Germany) and dissolved in a CH3CN/Na2CO3 (300 µM)/NaOH (250 µM) ([…], v/v/v) mixture in order to have a stable stock solution of Aβ1-42 with concentration 500 µM.
Solutions of the assayed compounds (0.5 mg/mL) were firstly prepared in 60% (v/v) DMSO/MeOH medium and then diluted in phosphate buffer (0.215 M, pH 8.0) to a concentration of 120 µM. The Aβ1-42 aggregation inhibition assays were performed according to a reported method based on the fluorescence emission of thioflavin T (ThT, Aldrich Steinheim, Germany). Therefore, Aβ1-42 (40 µM) was incubated at 37 °C for 24 h in phosphate buffer and in the presence or absence of each ligand (20 µM). Then, the samples were added to a 96-well plate with 180 µL of 5 µM ThT in 50 mM glycine-NaOH (pH 8.5) buffer. Blank samples were identically prepared for each concentration but in the absence of the peptide. The ThT fluorescence was measured at 445 nm (excitation) and 485 nm (emission). The percent of aggregation inhibition was calculated by the following equation:I% = 100 − (IFi/IF0 × 100), in which IFi and IF0 are the fluorescence intensities, in the presence and the absence of the tested compound, subtracted from the fluorescence intensities due to the respective blanks. The reported values were obtained as the mean ± SEM of two different experiments performed in duplicate.
The inhibitory capacity of the RIV-IND hybrids towards Aβ42 self-aggregation was evaluated in vitro by molecular fluorescence spectroscopy through the thioflavin T (ThT) method. In fact, since there is an increase in the absorbance and emission of ThT when it binds to amyloid fibrils, it is possible to determine the percent of Aβ42 self-aggregation (see Table 1). The assays were performed in the presence of 20 µM of inhibitor to overcome the solubility limitations of some compounds in the phosphate buffer aqueous medium.

[4] = DPPH free radical scavenging (antioxidant) assay; conditions: read-out: Antioxidant Activity EC50; DPPH method, mean of three independent experiments
Protocol: The radical scavenging activity (antioxidant capacity) of the herein-developed RIV-IND hybrids was determined by the DPPH method [33]. Working solutions of the compounds in 10% DMSO/MeOH (, HoneywellSeelze, Germany) medium were used to prepare 5 methanolic solutions (5 points, 3 replicates) containing DPPH (Sigma-Aldrich, Steinheim, Germany) and different concentrations of compound up to 3.5 mL total volume. […] The respective antioxidant activity (%AA) was calculated using the following equation: %AA=ADPPH−Aligand/ADPPH×100
The reported results were obtained as the mean values of three independent experiments.
The new RIV-IND compounds were also screened for their radical scavenging activity (EC50), according to the 2,2-diphenyl-1-picrylhydrazyl (DPPH) free radical method.

[5] = target: T3, electric eel acetylcholinesterase (eeAChE) (Electrophorus electricus, UniProt O42275); assay: AChE inhibition, adapted Ellman method; type: biochemical; conditions: mean of two independent experiments ± SD, read-out: AChE Inhib IC50
T3 construct: purchased Sigma-Aldrich (Steinheim, Germany)
T3 sequence (O42275 24-633): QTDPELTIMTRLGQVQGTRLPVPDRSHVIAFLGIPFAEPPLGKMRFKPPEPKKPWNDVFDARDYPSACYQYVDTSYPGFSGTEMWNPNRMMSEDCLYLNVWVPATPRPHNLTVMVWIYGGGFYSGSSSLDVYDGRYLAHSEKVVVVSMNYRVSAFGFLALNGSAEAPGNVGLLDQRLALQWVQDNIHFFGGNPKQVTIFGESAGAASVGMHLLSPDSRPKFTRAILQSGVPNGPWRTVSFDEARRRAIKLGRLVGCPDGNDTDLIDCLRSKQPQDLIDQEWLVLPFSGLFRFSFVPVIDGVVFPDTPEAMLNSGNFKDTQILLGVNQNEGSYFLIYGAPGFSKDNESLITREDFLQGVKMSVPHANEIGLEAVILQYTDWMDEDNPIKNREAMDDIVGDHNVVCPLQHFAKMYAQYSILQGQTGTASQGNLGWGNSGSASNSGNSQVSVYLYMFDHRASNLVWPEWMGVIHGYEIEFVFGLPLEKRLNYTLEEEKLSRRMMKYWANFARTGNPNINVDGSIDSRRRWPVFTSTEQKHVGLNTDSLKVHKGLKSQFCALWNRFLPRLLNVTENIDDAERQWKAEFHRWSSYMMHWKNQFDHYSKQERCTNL
Protocol: as §1

[6] = test system: SH-SY5Y cells; assay: Neuroprotection against Aβ1-42-induced toxicity, MTT; type: cell-based, human; conditions: Aβ1-42 1 µM, 24 h, optimized concentration of each compound
Protocol: as §2
To test whether the compounds have a protective effect against toxicity induced by Aβ1-42 or iron/ascorbate, the cells were pre-incubated for 1 h with each compound, followed by the addition of Aβ1-42 or iron/ascorbate and incubation for an additional 24 h. Aβ1-42 (Bachem, Torrance, CA, USA) was prepared in sterile water to produce a stock solution of 443 µM and added to the cells at a final concentration of 1 µM. Ferrous sulfate and L-ascorbic acid (Sigma Chemical Co, St. Louis, MO, USA), prepared in sterile water, were added to the medium together at a final concentration of 5 mM and 2.5 mM, respectively. For this assay, the optimal concentration of each compound was used to prevent cellular demise induced by Aβ1-42 or iron/ascorbate. Compound 5a1 was added to the medium at a 1 µM final concentration; compounds 5a2, 5a3, 5b1, 5b2 and 5c2 were added to the medium at a 2.5 µM final concentration; compounds 5c1 and 5c3 were added to the medium at a 5 µM final concentration; and compound 5b3 was added to the medium at a 10 µM final concentration. […] Controls were employed for each plate using untreated cells and Aβ1-42 or iron/ascorbate only. Cell reduction ability was normalized to the untreated condition. All data are expressed as mean ± SEM of at least three independent experiments performed in duplicate. Statistical analyses were performed for normality assessment using Shapiro–Wilk’s test followed by the Kruskal–Wallis test considering that normality was not verified. Post hoc analysis was performed using uncorrected Dunn’s test. A p value < 0.05 was considered statistically significant.
Figure 4 Neuroprotective effect of RIV-IND compounds against cellular toxicity induced by Aβ1-42 measured by MTT reduction ability on SH-SY5Y cells pretreated with […] for one hour, followed by a 24 h incubation with the optimized concentration of each compound. Results are expressed relatively to untreated cells, with the mean ± standard error of the mean (SEM) derived from three to seven independent experiments. * p < 0.05; ** p < 0.01; *** p < 0.001; **** p < 0.0001 compared to untreated cells. # p < 0.05 compared to Aβ1-42-treated cells. (The dot line indicates the decrease in cellular viability induced by Aβ).

[7] = test system: SH-SY5Y cells; assay: Neuroprotection against iron/ascorbate-induced toxicity, MTT; type: cell-based, human; conditions: ferrous sulfate 5 mM and L-ascorbic acid 2.5 mM, 24 h, optimized concentration of each compound
Protocol: as §2
To test whether the compounds have a protective effect against toxicity induced by Aβ1-42 or iron/ascorbate, the cells were pre-incubated for 1 h with each compound, followed by the addition of Aβ1-42 or iron/ascorbate and incubation for an additional 24 h. Aβ1-42 (Bachem, Torrance, CA, USA) was prepared in sterile water to produce a stock solution of 443 µM and added to the cells at a final concentration of 1 µM. […] All data are expressed as mean ± SEM of at least three independent experiments performed in duplicate. […]
Figure 5 Neuroprotective effect of RIV-IND compounds against cellular toxicity induced by iron/ascorbate (Fe/Asc) measured by MTT reduction ability on SH-SY5Y cells pretreated with iron/ascorbate for one hour, followed by a 24 h incubation with the optimized concentration of each compound. […]

[8] = parameters: method as in PMID 23344203; conditions: reference antioxidant; read-out: radical scavenging activity EC50; cited from earlier work

| SMILES | SI (selectivity index) [1] | IC50 [1] | highest nontoxic concentration [2] | inhibition at 20 µM [3] | EC50 [4] | IC50 [5] | neuroprotective effect against toxicity induced by Aβ1-42 [6] | neuroprotective effect against toxicity induced by iron/ascorbate [7] | EC50 [8] |
| --- | --- | --- | --- | --- | --- | --- | --- | --- | --- |
| CCN(C)C(=O)Oc1cccc(NC(=O)c2cc3ccccc3[nH]2)c1 [Compound 5a1] | 6.0 | 29.9 ± 0.4 µM | 1 µM | 26.9% | > 2000 µM | – | – | – | – |
| CCN(C)C(=O)Oc1cccc(NC(=O)c2cc3cc(O)ccc3[nH]2)c1 [Compound 5a2, 3-(5-Hydroxy-1H-indole-2-carboxamido)phenyl ethyl(methyl)carbamate] | 64.0 | 3.22 ± 0.02 µM | 2.5 µM | 25% | 8.4 ± 0.2 µM | 206 ± 4 µM | – | – | – |
| CCN(C)C(=O)Oc1cccc(CNC(=O)c2cc3cc(O)ccc3[nH]2)c1 [Compound 5b2, 3-((5-Hydroxy-1H-indole-2-carboxamido)methyl)phenyl-ethyl(methyl)carbamate] | 3.0 | 27.1 ± 0.1 µM | 2.5 µM | 29.4% | 7.8 ± 0.5 µM | 80 ± 2 µM | can prevent the toxicity induced by Aβ1-42 to cells; also recorded: able to rescue Aβ1-42-induced toxicity to levels that were not significantly different from untreated cells; also recorded: able to prevent the toxicity induced by Aβ1-42 to neuroblastoma cells (SH-SY5Y) | – | – |
| CCN(C)C(=O)Oc1cccc(CNC(=O)c2cc3cccc(O)c3[nH]2)c1 [Compound 5b3, 3-((7-Hydroxy-1H-indole-2-carboxamido)methyl)phenyl-ethyl(methyl)carbamate] | 14.2 | 5.7 ± 0.3 µM | 10 µM | 47.8% | 20.2 ± 0.4 µM | 80.7 ± 0.4 µM | – | able to significantly increase cell viability after the trigger; also recorded: able to significantly protect cell viability after iron/ascorbate oxidative insult | – |
| CCN(C)C(=O)Oc1cccc(CCNC(=O)c2cc3ccccc3[nH]2)c1 [Compound 5c1, 3-(2-(1H-indole-2-carboxamido)ethyl)phenyl ethylmethylcarbamate] | 2.8 | 14.5 ± 0.7 µM | 5 µM | 25.6% | > 2000 µM | 40 ± 2 µM | – | – | – |
| CCN(C)C(=O)Oc1cccc(CCNC(=O)c2cc3cc(O)ccc3[nH]2)c1 [Compound 5c2, 3-(2-(5-Hydroxy-1H-indole-2-carboxamido)ethyl)phenyl ethyl(methyl)carbamate] | 3.8 | 15.2 ± 0.4 µM | 2.5 µM | 49.9% | 8.5 ± 0.6 µM | 58.6 ± 0.3 µM | can prevent the toxicity induced by Aβ1-42 to cells; also recorded: able to rescue Aβ1-42-induced toxicity to levels that were not significantly different from untreated cells; also recorded: able to prevent the toxicity induced by Aβ1-42 to neuroblastoma cells (SH-SY5Y) | – | – |
| CCN(C)C(=O)Oc1cccc(CCNC(=O)c2cc3cccc(O)c3[nH]2)c1 [Compound 5c3, 3-(2-(7-Hydroxy-1H-indole-2-carboxamido)ethyl)phenyl ethyl(methyl)carbamate] | 1.8 | 14.9 ± 0.7 µM | 5 µM | 55.5% | 20.7 ± 0.4 µM | 26.8 ± 0.3 µM | also present neuroprotection | – | – |
| Cc1c(O)c(=O)ccn1C [Deferiprone, deferiprone, reference compound] | – | – | – | – | 148 ± 3 µM | – | – | – | – |
| Cc1c(C)c2c(c(C)c1O)CCC(C)(C(=O)O)O2 (stereo not drawn) [Trolox, reference compound] | – | – | – | – | 13.8 ± 0.2 µM | – | – | – | – |
| O=C1O[C@H]([C@@H](O)CO)C(O)=C1O [vitamin C] | – | – | – | – | – | – | – | – | 15 µM |
